Values of other authors, collected in patent US11975015B2, “Methods for treating degenerative disc disease and chronic lower back pain” (ECM Biologics, Inc., priority 2017, dated 2024).

System: chronic low back pain (CLBP)
Conditions: amoxicillin 500 mg-clavulanic acid 125 mg three times a day for 100 days; Albert 2013, Palazzo 2017

amoxicillin-clavulanic acid
treatment outcome in CLBP patients: mixed results
